Reference: publication PMC12418644, “Production, optimization and characterization of esterase isolated from a new endophytic Trichoderma afroharzianum strain AUMC 16,433 and its applications in dye decolorization” (Microbial Cell Factories, 2025)

System: T1, T. afroharzianum esterase (purified extracellular esterase)
T1 construct: 43 kDa by SDS-PAGE and gel filtration; monomeric
Assay: p-nitrophenol release at […] nm, Lineweaver-Burk plot
Format: biochemical, Trichoderma afroharzianum
Conditions: 50 mM Tris pH 8, 37 °C (standard assay), 1-10 mM substrate

Km: 3.33 mM
SMILES: CC(=O)Oc1ccc([N+](=O)[O-])cc1 [p-NPA, p-nitrophenyl acetate]
